Target: T1, Cdc7 (BEV coexpressed huCDC7/DBF4) (Homo sapiens, UniProt O00311)
T1 construct: made in house; host or cells: baculovirus expression vector (BEV) co-expression
Assay: Cdc7 enzyme inhibition assay ([33P]-ATP, biotinylated peptide substrate, FlashPlate)
Type: biochemical
Conditions: Ki generated from IC50 assuming ATP-competitive inhibition; 1 μM ATP, apparent ATP Km 0.7 μM; 1 hr reaction
Description: This example describes the assays that may be used to identify compounds having kinase activity.
Cdc7 (BEV coexpressed huCDC7/DBF4) is prepared internally. Cdc7 assays are conducted as follows with final concentrations as listed. In 384-well v-bottom polypropylene plates, 6 μL compound (2% DMSO), is mixed with 6 μL of Cdc7 (2 ug/mL), and Jerini peptide substrate A-A11 (biotin-C6linker-[…]) (2 μM), followed by immediate initiation with 6 μL […] (1 μM, 20 mCi/μmol) using a reaction buffer comprising 25 mM HEPES, pH 7.5, 1 mM DTT, 10 mM MgCl2, 100 μM, Na3VO4, 0.075 mg/ml Triton X-100. Reactions are quenched after 1 hr by the addition of 90 μL stop buffer (50 mM EDTA, 2M NaCl).
Table 1 depicts enzyme inhibition data (Ki) for exemplary compounds.

T1 sequence (O00311 whole entry): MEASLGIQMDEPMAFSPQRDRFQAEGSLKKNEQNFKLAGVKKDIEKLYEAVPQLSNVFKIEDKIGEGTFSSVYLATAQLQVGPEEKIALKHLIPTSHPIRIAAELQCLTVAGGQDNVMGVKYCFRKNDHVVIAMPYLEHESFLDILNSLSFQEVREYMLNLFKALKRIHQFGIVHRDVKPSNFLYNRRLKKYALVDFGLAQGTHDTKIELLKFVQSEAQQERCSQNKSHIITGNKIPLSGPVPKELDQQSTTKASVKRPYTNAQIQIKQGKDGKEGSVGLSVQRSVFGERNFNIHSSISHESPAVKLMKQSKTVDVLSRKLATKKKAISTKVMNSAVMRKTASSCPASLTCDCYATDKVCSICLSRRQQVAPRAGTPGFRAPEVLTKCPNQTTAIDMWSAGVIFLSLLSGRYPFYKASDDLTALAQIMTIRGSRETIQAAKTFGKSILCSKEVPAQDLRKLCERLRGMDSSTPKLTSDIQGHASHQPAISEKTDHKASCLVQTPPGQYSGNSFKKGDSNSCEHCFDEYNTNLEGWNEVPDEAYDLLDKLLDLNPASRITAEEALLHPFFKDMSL
T1 sequence (Q9UBU7 whole entry partner): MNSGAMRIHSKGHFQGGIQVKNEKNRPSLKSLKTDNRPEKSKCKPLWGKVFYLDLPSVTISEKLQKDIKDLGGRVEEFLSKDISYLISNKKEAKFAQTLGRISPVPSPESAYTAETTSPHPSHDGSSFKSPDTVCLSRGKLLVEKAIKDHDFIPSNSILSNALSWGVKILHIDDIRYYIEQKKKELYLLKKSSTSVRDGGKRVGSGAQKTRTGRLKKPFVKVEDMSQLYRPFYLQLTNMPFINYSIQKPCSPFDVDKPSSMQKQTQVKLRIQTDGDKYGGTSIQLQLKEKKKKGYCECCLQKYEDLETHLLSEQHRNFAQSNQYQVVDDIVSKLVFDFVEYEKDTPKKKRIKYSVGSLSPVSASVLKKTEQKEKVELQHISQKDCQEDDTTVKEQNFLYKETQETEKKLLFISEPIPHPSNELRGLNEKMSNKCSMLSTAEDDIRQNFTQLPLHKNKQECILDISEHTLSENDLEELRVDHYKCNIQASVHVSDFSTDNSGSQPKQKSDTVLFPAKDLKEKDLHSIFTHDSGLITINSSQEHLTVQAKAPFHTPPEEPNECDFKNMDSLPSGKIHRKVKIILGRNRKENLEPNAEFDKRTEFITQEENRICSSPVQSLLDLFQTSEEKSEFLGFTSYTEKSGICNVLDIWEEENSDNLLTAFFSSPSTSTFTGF

Row | Ki [nM] | Structure (SMILES)
1 | < 10 | COc1cccc(-c2cc(-c3c[nH]c4ncccc34)cc(=O)[nH]2)c1OC [Example 43, 6-(2,3-dimethoxyphenyl)-4-(1H-pyrrolo[2,3-b]pyridin-3-yl)pyridin-2(1H)-one]
2 | < 10 | O=c1cc(-c2c[nH]c3ncccc23)cc(-c2ccccc2)[nH]1 [Example 34, 6-phenyl-4-(1H-pyrrolo[2,3-b]pyridin-3-yl)pyridin-2(1H)-one]
3 | < 10 | O=c1cc(-c2c[nH]c3ncccc23)cc(-c2ccc3ccccc3c2)[nH]1 [Example 41, 6-(2-naphthyl)-4-(1H-pyrrolo[2,3-b]pyridin-3-yl)pyridin-2(1H)-one]
4 | < 10 | Cc1c(Cl)cccc1-c1cc(-c2c[nH]c3ncccc23)cc(=O)[nH]1 [Example 48, 6-(3-chloro-2-methylphenyl)-4-(1H-pyrrolo[2,3-b]pyridin-3-yl)pyridin-2(1H)-one]
5 | < 10 | O=c1cc(-c2c[nH]c3ncccc23)nc(-c2ccccc2)[nH]1 [Example 32, 2-phenyl-6-(1H-pyrrolo[2,3-b]pyridin-3-yl)pyrimidin-4(3H)-one]
6 | < 10 | Cc1cccc(-c2cc(-c3c[nH]c4ncccc34)cc(=O)[nH]2)c1C [Example 37, 6-(2,3-dimethylphenyl)-4-(1H-pyrrolo[2,3-b]pyridin-3-yl)pyridin-2(1H)-one]
7 | < 10 | O=c1cc(-c2c[nH]c3ncccc23)cc(-c2cccc(OC(F)(F)F)c2)[nH]1 [Example 35, 4-(1H-pyrrolo[2,3-b]pyridin-3-yl)-6-[3-(trifluoromethoxy)phenyl]pyridin-2(1H)-one]
8 | < 10 | O=c1cc(-c2c[nH]c3ncccc23)cc(-c2cccc(C(F)(F)F)c2)[nH]1 [Example 36, 4-(1H-pyrrolo[2,3-b]pyridin-3-yl)-6-[3-(trifluoromethyl)phenyl]pyridin-2(1H)-one]
9 | < 10 | Cc1ccccc1-c1cc(-c2c[nH]c3ncccc23)cc(=O)[nH]1 [Example 38, 6-(2-methylphenyl)-4-(1H-pyrrolo[2,3-b]pyridin-3-yl)pyridin-2(1H)-one]
10 | < 10 | O=c1cc(-c2c[nH]c3ncccc23)nc(Nc2ccccc2)[nH]1 [Example 3, 2-anilino-6-(1H-pyrrolo[2,3-b]pyridin-3-yl)pyrimidin-4(3H)-one]
11 | < 10 | O=c1cc(-c2c[nH]c3ncccc23)cc(-c2ccc3c(c2)OCO3)[nH]1 [Example 39, 6-(1,3-benzodioxol-5-yl)-4-(1H-pyrrolo[2,3-b]pyridin-3-yl)pyridin-2(1H)-one]
12 | < 10 | Cc1ncccc1-c1cc(-c2c[nH]c3ncccc23)cc(=O)[nH]1 [Example 53, 2′-methyl-4-(1H-pyrrolo[2,3-b]pyridin-3-yl)-2,3′-bipyridin-6(1H)-one]

Second part, the compound before the results:

Row | Structure (SMILES) | Ki [nM]
13 | O=c1cc(-c2c[nH]c3ncccc23)nc(NC2CCCCCC2)[nH]1 [Example 14, 2-(cycloheptylamino)-6-(1H-pyrrolo[2,3-b]pyridin-3-yl)pyrimidin-4(3H)-one] | < 10
14 | N[C@H]1CC[C@H](Nc2cc(-c3c[nH]c4ncccc34)cc(=O)[nH]2)CC1 [Example 56, 6-[(trans-4-aminocyclohexyl)amino]-4-(1H-pyrrolo[2,3-b]pyridin-3-yl)pyridin-2(1H)-one] | < 10
15 | O=C(N[C@H]1CC[C@H](Nc2cc(-c3c[nH]c4ncccc34)cc(=O)[nH]2)CC1)C1CN(Cc2ccc(F)cc2)C1 [Example 59, 1-(4-fluorobenzyl)-N-(trans-4-{[6-oxo-4-(1H-pyrrolo[2,3-b]pyridin-3-yl)-1,6-dihydropyridin-2-yl]amino}cyclohexyl)azetidine-3-carboxamide] | < 10
16 | O=c1cc(-c2c[nH]c3ncccc23)nc(NC2CCCCC2)[nH]1 [Example 1, 2-(cyclohexylamino)-6-(1H-pyrrolo[2,3-b]pyridin-3-yl)pyrimidin-4(3H)-one] | < 10
17 | O=c1cc(-c2c[nH]c3ncccc23)nc(NCCCN2CCOCC2)[nH]1 [Example 22, 2-{[3-(morpholin-4-yl)propyl]amino}-6-(1H-pyrrolo[2,3-b]pyridin-3-yl)pyrimidin-4(3H)-one] | < 10
18 | O=c1cc(-c2c[nH]c3ncccc23)nc(NC2CCCCC2O)[nH]1 (centres unmarked) [Example 28, 2-[(2-hydroxycyclohexyl)amino]-6-(1H-pyrrolo[2,3-b]pyridin-3-yl)pyrimidin-4(3H)-one] | < 10
19 | NC1CCCCC1Nc1nc(-c2c[nH]c3ncccc23)cc(=O)[nH]1 (centres unmarked) [Example 13, 2-[(2-aminocyclohexyl)amino]-6-(1H-pyrrolo[2,3-b]pyridin-3-yl)pyrimidin-4(3H)-one] | < 10
20 | O=c1cc(-c2c[nH]c3ncccc23)cc(N[C@H]2CC[C@H](NS(=O)(=O)C3CC3)CC2)[nH]1 [Example 57, N-(trans-4-{[6-oxo-4-(1H-pyrrolo[2,3-b]pyridin-3-yl)-1,6-dihydropyridin-2-yl]amino}cyclohexyl)cyclopropanesulfonamide] | < 10
21 | O=C(O)C1CCN(c2nc(-c3c[nH]c4ncccc34)cc(=O)[nH]2)CC1 [Example 25, 1-[6-oxo-4-(1H-pyrrolo[2,3-b]pyridin-3-yl)-1,6-dihydropyrimidin-2-yl]piperidine-4-carboxylic acid] | < 10
22 | NCCOCCOCCNc1nc(-c2c[nH]c3ncccc23)cc(=O)[nH]1 [Example 31, 2-({2-[2-(2-aminoethoxy)ethoxy]ethyl}amino)-6-(1H-pyrrolo[2,3-b]pyridin-3-yl)pyrimidin-4(3H)-one] | < 10
23 | O=c1cc(-c2c[nH]c3ncccc23)nc(N2CCSCC2)[nH]1 [Example 15, 6-(1H-pyrrolo[2,3-b]pyridin-3-yl)-2-(thiomorpholin-4-yl)pyrimidin-4(3H)-one] | < 10
